In patent US11185074B2, “Microbiocidal quinoline (thio)carboxamide derivatives” (SYNGENTA PARTICIPATIONS AG, priority 2017, dated 2021) one finds inhibition of growth, melting point and pest or weed control data, which are given here for ten compounds.

In data set [1] the test system is Magnaporthe grisea (Pyricularia oryzae). Briefly: microbe, parasite or virus in culture. To be noted: 72 h, read-out: control of Magnaporthe grisea. The class given is cell-based.
The test system of data set [2] is Fusarium culmorum. Description: microbe, parasite or virus in culture. The class given is cell-based. To be noted: read-out: control of Fusarium culmorum.
In data set [3] the test system is Glomerella lagenarium (Colletotrichum lagenarium). Briefly: Glomerella lagenarium (Colletotrichum lagenarium) / liquid culture (anthracnose). The class given is cell-based. Conditions: Colletotrichum orbiculare; 20 ppm; liquid culture, inhibition of growth photometrically 3-4 days after application; compared to untreated control; read-out: control of Glomerella lagenarium.

For data set [4], the system named is Botryotinia fuckeliana (Botrytis cinerea). Briefly: Botryotinia fuckeliana (Botrytis cinerea) / liquid culture (gray mould). The class given is cell-based. Conditions: 72 h, 20 ppm, liquid culture, inhibition of growth photometrically 3-4 days after application, compared to untreated control, read-out: control of Botryotinia fuckeliana.
In a further data set the test system is Sclerotinia sclerotiorum. Description: Sclerotinia sclerotiorum / liquid culture (cottony rot). Conditions: 72 h, read-out: control of Sclerotinia sclerotiorum.
Data set [5] concerns Monographella nivalis (Microdochium nivale). Description: Monographella nivalis (Microdochium nivale) / liquid culture (foot rot cereals). The class given is cell-based. Conditions: 96 h, inhibition of growth photometrically 4-5 days after application, compared to untreated control.
In data set [6] the test system is Fusarium culmorum. Description: whole plant or invertebrate. It counts as in vivo, Fusarium culmorum on wheat spikelets cv. Monsun. To be noted: in Triticum aestivum, read-out: control of Fusarium culmorum.

Protocol for Sclerotinia sclerotiorum: Sclerotinia sclerotiorum/Liquid Culture (Cottony Rot)
Mycelia fragments of a newly grown liquid culture of the fungus are directly mixed into nutrient broth (Vogels broth). After placing a (DMSO) solution of test compound into a microtiter plate (96-well format) the nutrient broth containing the fungal material is added. The test plates are incubated at 24° C. and the inhibition of growth is determined photometrically 3-4 days after application.

`CC(C)CC(C)(CC(C)C)NC(=O)c1cnc2c(F)cccc2c1` [E-4] returned a melting point of 139 to 142 °C. Moreover, in data set [1], the inhibition of growth at 20 ppm was ≥ 80%. Besides, in the data set on Fusarium culmorum [2], the inhibition of growth at 20 ppm was ≥ 80%. Moreover, in data set [3], the inhibition of growth at 20 ppm was ≥ 80%. Moreover, the inhibition of growth at 20 ppm in data set [4] was ≥ 80%. The inhibition of growth at 20 ppm with Sclerotinia sclerotiorum is ≥ 80%.

Compound `CC(C)CC(C)(CCc1ccccc1)NC(=O)c1cnc2c(F)cccc2c1` (stereo not shown) [E-8] had a melting point of 170 to 175 °C. For the same compound, the inhibition of growth at 20 ppm in data set [1] was ≥ 80%. Besides, the inhibition of growth at 20 ppm with Fusarium culmorum [2] is ≥ 80%. The inhibition of growth at 20 ppm in data set [5] is ≥ 80%. The inhibition of growth at 20 ppm in data set [3] is ≥ 80%. For the same compound, the inhibition of growth at 20 ppm in data set [4] is ≥ 80%. Also, the inhibition of growth at 20 ppm in the data set on Sclerotinia sclerotiorum was ≥ 80%.

`C=C(C)CC(C)(CC(C)C)NC(=O)c1cnc2ccccc2c1` (stereo not shown) [E-12]: the melting point fell in the range of 89 to 91 °C. Moreover, the pest or weed control at 200 ppm with Fusarium culmorum [6] was ≥ 80%. Moreover, the inhibition of growth at 20 ppm in data set [1] was ≥ 80%. Moreover, the inhibition of growth at 20 ppm with Fusarium culmorum [2] is ≥ 80%. The inhibition of growth at 20 ppm in data set [5] was ≥ 80%. Besides, the inhibition of growth at 20 ppm in data set [3] is ≥ 80%. For the same compound, the inhibition of growth at 20 ppm in data set [4] was ≥ 80%.

As to `CC(CC1CC1)(CC1CC1)NC(=O)c1cnc2c(F)cccc2c1` [E-17], the melting point is 96 to 98 °C. Also, the pest or weed control at 200 ppm with Fusarium culmorum [6] was ≥ 80%. The inhibition of growth at 20 ppm in data set [1] was ≥ 80%. The inhibition of growth at 20 ppm in the data set on Fusarium culmorum [2] is ≥ 80%. Also, in data set [5], the inhibition of growth at 20 ppm is ≥ 80%. Further, the inhibition of growth at 20 ppm in data set [3] was ≥ 80%. Also, the inhibition of growth at 20 ppm in data set [4] was ≥ 80%.

In turn, `CC(C)=C(F)CC(C)(CC(C)C)NC(=O)c1cnc2ccccc2c1` (stereo not shown) [E-19] yielded a melting point of 95 to 97 °C. Further, the pest or weed control at 200 ppm in the data set with Fusarium culmorum [6] is ≥ 80%. The inhibition of growth at 20 ppm in data set [1] was ≥ 80%. The inhibition of growth at 20 ppm with Fusarium culmorum [2] is ≥ 80%. For the same compound, the inhibition of growth at 20 ppm in data set [3] is ≥ 80%. Also, the inhibition of growth at 20 ppm in data set [4] was ≥ 80%.

`C=C(C)CC(COC)(CC(=C)C)NC(=O)c1cnc2c(F)cccc2c1` [E-20] had a melting point of 97 to 100 °C. Also, the pest or weed control at 200 ppm in the data set on Fusarium culmorum [6] was ≥ 80%. In addition, the inhibition of growth at 20 ppm in data set [1] is ≥ 80%. Also, the inhibition of growth at 20 ppm in the data set on Fusarium culmorum [2] was ≥ 80%. Further, in data set [5], the inhibition of growth at 20 ppm was ≥ 80%. The inhibition of growth at 20 ppm in data set [3] was ≥ 80%. In addition, in data set [4], the inhibition of growth at 20 ppm is ≥ 80%.

The compound `CCC(CC)CC(C)(CC(F)(F)F)NC(=O)c1cnc2ccccc2c1` (stereo not shown) [E-43] yielded a melting point of 93 to 95 °C. For the same compound, in the data set on Fusarium culmorum [6], the pest or weed control at 200 ppm was ≥ 80%. In data set [1], the inhibition of growth at 20 ppm was ≥ 80%. Moreover, the inhibition of growth at 20 ppm in the data set with Fusarium culmorum [2] is ≥ 80%. The inhibition of growth at 20 ppm in data set [3] is ≥ 80%. Besides, the inhibition of growth at 20 ppm in data set [4] was ≥ 80%.

`Cc1cccc2cc(C(=O)NC(C)(CC3CC=CCC3)CC(F)(F)F)cnc12` (stereo not shown) [E-53] displayed a melting point of 112 to 114 °C. The inhibition of growth at 20 ppm in data set [1] is ≥ 80%. Further, the inhibition of growth at 20 ppm with Fusarium culmorum [2] was ≥ 80%. For the same compound, in data set [5], the inhibition of growth at 20 ppm was ≥ 80%. Also, the inhibition of growth at 20 ppm in data set [3] was ≥ 80%. Further, the inhibition of growth at 20 ppm in data set [4] is ≥ 80%. Moreover, the inhibition of growth at 20 ppm in the data set on Sclerotinia sclerotiorum was ≥ 80%.

`CC(CC1CC=CCC1)(CC(F)(F)F)NC(=O)c1cnc2ccccc2c1` (stereo not shown) [E-55]: the melting point lay within 90 to 95 °C. Besides, the pest or weed control at 200 ppm in the data set on Fusarium culmorum [6] was ≥ 80%. In addition, in data set [1], the inhibition of growth at 20 ppm is ≥ 80%. Moreover, the inhibition of growth at 20 ppm in the data set on Fusarium culmorum [2] is ≥ 80%. Besides, in data set [5], the inhibition of growth at 20 ppm was ≥ 80%. For the same compound, the inhibition of growth at 20 ppm in data set [3] is ≥ 80%. Further, the inhibition of growth at 20 ppm in data set [4] is ≥ 80%.

On to `CC(CC1CCCCC1)(CC(F)(F)F)NC(=O)c1cnc2ccccc2c1` (stereo not shown) [E-60], for which the melting point lay within 70 to 87 °C. Moreover, in the data set with Fusarium culmorum [6], the pest or weed control at 200 ppm was ≥ 80%. Besides, the inhibition of growth at 20 ppm in data set [1] was ≥ 80%. Further, the inhibition of growth at 20 ppm with Fusarium culmorum [2] was ≥ 80%. Besides, the inhibition of growth at 20 ppm in data set [5] is ≥ 80%. The inhibition of growth at 20 ppm in data set [3] was ≥ 80%. Besides, the inhibition of growth at 20 ppm in data set [4] is ≥ 80%.

The term melting point denotes the temperature, or range, at which the solid turns liquid.
